Assay results published in PMC5224920, “Assessing the mechanism and therapeutic potential of modulators of the human Mediator complex-associated protein kinases” (eLife, 2016).

Tested on: 12 single or co-culture in vitro tissue models of primary cells
Assay: Culture/co-culture cell model panel, extracellular biomarkers (DiscoveRx); as to CCL2/MCP-1: reference of the scale not given here; as to CD141/Thrombomodulin: reference of the scale not given here; as to CD142/Tissue Factor: reference of the scale not given here; as to CD38: reference of the scale not given here; as to CD40: reference of the scale not given here; as to CD69: reference of the scale not given here; as to CXCL8/IL-8: reference of the scale not given here; as to CXCL9/MIG: reference of the scale not given here; as to IL-1alpha: reference of the scale not given here; as to M-CSF: reference of the scale not given here; as to PBMC Cytotoxicity: reference of the scale not given here; as to SRB: reference of the scale not given here; as to sPGE2: reference of the scale not given here; as to sTNF-alpha: reference of the scale not given here
Type: cell-based, human
[1] = HDF3CGF stimulated fibroblasts, 1.00E3 nM
[2] = HDF3CGF stimulated fibroblasts, 1.00E4 nM
[3] = HPNo Huvec+PBMC unstimulated, 1.00E0 nM
[4] = HPNo Huvec+PBMC unstimulated, 1.00E1 nM
[5] = HPNo Huvec+PBMC unstimulated, 1.00E2 nM
[6] = HPNo Huvec+PBMC unstimulated, 1.00E3 nM
[7] = HPNo Huvec+PBMC unstimulated, 1.00E4 nM

## CN1c2ccc(-c3cncc(Cl)c3N3CCC4(CC3)CNC(=O)O4)cc2CS1(=O)=O [CMPD2]
[1]
  EGFR: -0.052
  M-CSF: -0.096
  MMP-1: 0.008
  PAI-I: -0.00267
  Proliferation_72hr: -0.251
  SRB: 0.000361
  TIMP-1: -0.053
  TIMP-2: 0.124
[2]
  CCL2/MCP-1: -0.114
  CD54/ICAM-1: -0.054
  CD106/VCAM-1: 0.046
  CXCL8/IL-8: -0.128
  CXCL9/MIG: -0.076
  CXCL10/IP-10: 0.028
  CXCL11/I-TAC: -0.031
  Collagen I: 0.036
  Collagen III: 0.126
  EGFR: -0.055
  M-CSF: -0.106
  MMP-1: 0.00332
  PAI-I: -0.018
  Proliferation_72hr: -0.340
  SRB: -0.00651
  TIMP-1: -0.067
  TIMP-2: 0.106
[3]
  CCL2/MCP-1: 0.047
  CD38: 0.008
  CD40: -0.048
  CD106/VCAM-1: 0.122
  CD141/Thrombomodulin: 0.013
  CD142/Tissue Factor: 0.008
[4]
  CCL2/MCP-1: 0.017
  CD38: -0.016
  CD40: -0.068
  CD106/VCAM-1: 0.183
  CD141/Thrombomodulin: -0.006
  CD142/Tissue Factor: 0.035
[5]
  CCL2/MCP-1: 0.000304
  CD38: 0.014
  CD40: -0.055
  CD106/VCAM-1: 0.274
  CD141/Thrombomodulin: 0.005
  CD142/Tissue Factor: 0.003
[6]
  CCL2/MCP-1: 0.022
  CD38: -0.028
  CD40: -0.055
  CD106/VCAM-1: 0.205
  CD141/Thrombomodulin: 0.027
  CD142/Tissue Factor: -0.00853
[7]
  CCL2/MCP-1: 0.015
  CD38: -0.095
  CD40: -0.048
  CD106/VCAM-1: 0.147
  CD141/Thrombomodulin: 0.018
  CD142/Tissue Factor: -0.051
HPNo, 1.00E0 nM
  CD69: 0.011
  CXCL8/IL-8: 0.022
  CXCL9/MIG: 0.062
  M-CSF: 0.018
  SRB: -0.102
  sPGE2: 0.045
  sTNF-alpha: 0.140
HPNo, 1.00E1 nM
  CD69: -0.097
  CXCL8/IL-8: -0.006
  CXCL9/MIG: -0.00447
  M-CSF: -0.015
  SRB: -0.043
  sPGE2: 0.026
  sTNF-alpha: 0.045
HPNo, 1.00E2 nM
  CD69: 0.035
  CXCL8/IL-8: 0.008
  CXCL9/MIG: 0.020
  M-CSF: -0.038
  SRB: 0.011
  sPGE2: 0.045
  sTNF-alpha: 0.037
HPNo, 1.00E3 nM
  CD69: -0.007
  CXCL8/IL-8: 0.014
  CXCL9/MIG: -0.00342
  M-CSF: 0.051
  SRB: 0.00149
  sPGE2: 0.054
  sTNF-alpha: -0.000698
HPNo, 1.00E4 nM
  CD69: -0.024
  CXCL8/IL-8: 0.024
  CXCL9/MIG: -0.063
  M-CSF: -0.029
  SRB: -0.014
  sPGE2: 0.013
  sTNF-alpha: 0.230
LPS Huvec+PBMC, 1.00E0 nM
  CCL2/MCP-1: 0.007
  CD40: -0.057
  CD69: -0.008
  CD106/VCAM-1: 0.052
  CD141/Thrombomodulin: 0.041
  CD142/Tissue Factor: 0.093
  CXCL8/IL-8: -0.00258
  IL-1alpha: 0.057
  M-CSF: 0.019
  SRB: -0.024
  sPGE2: 0.070
  sTNF-alpha: 0.028
LPS Huvec+PBMC, 1.00E1 nM
  CCL2/MCP-1: -0.031
  CD40: -0.098
  CD69: -0.024
  CD106/VCAM-1: 0.019
  CD141/Thrombomodulin: 0.064
  CD142/Tissue Factor: 0.086
  CXCL8/IL-8: -0.035
  IL-1alpha: 0.041
  M-CSF: -0.003
  SRB: -0.065
  sPGE2: 0.126
  sTNF-alpha: 0.036
LPS Huvec+PBMC, 1.00E2 nM
  CCL2/MCP-1: -0.057
  CD40: -0.098
  CD69: 0.050
  CD106/VCAM-1: 0.052
  CD141/Thrombomodulin: 0.070
  CD142/Tissue Factor: 0.084
  CXCL8/IL-8: -0.122
  IL-1alpha: 0.033
  M-CSF: -0.006
  SRB: -0.068
  sPGE2: 0.155
  sTNF-alpha: 0.039
LPS Huvec+PBMC, 1.00E3 nM
  CCL2/MCP-1: -0.096
  CD40: -0.100
  CD69: 0.022
  CD106/VCAM-1: 0.055
  CD141/Thrombomodulin: 0.054
  CD142/Tissue Factor: 0.086
  CXCL8/IL-8: -0.148
  IL-1alpha: 0.00095
  M-CSF: -0.00124
  SRB: -0.066
  sPGE2: 0.173
  sTNF-alpha: 0.034
LPS Huvec+PBMC, 1.00E4 nM
  CCL2/MCP-1: -0.102
  CD40: -0.101
  CD69: 0.034
  CD106/VCAM-1: 0.035
  CD141/Thrombomodulin: 0.062
  CD142/Tissue Factor: 0.080
  CXCL8/IL-8: -0.154
  IL-1alpha: -0.070
  M-CSF: -0.021
  SRB: -0.070
  sPGE2: 0.182
  sTNF-alpha: -0.175
SAg, 1.00E0 nM
  CCL2/MCP-1: 0.032
  CD38: -0.023
  CD40: -0.085
  CD69: 0.033
  CXCL8/IL-8: 0.067
  CXCL9/MIG: -0.004
  PBMC Cytotoxicity: 0.038
  Proliferation: 0.024
  SRB: -0.013
SAg, 1.00E1 nM
  CCL2/MCP-1: -0.012
  CD38: -0.063
  CD40: -0.169
  CD69: 0.018
  CXCL8/IL-8: -0.038
  CXCL9/MIG: -0.018
  PBMC Cytotoxicity: 0.015
  Proliferation: 0.017
  SRB: -0.031
SAg, 1.00E2 nM
  CCL2/MCP-1: -0.066
  CD38: -0.040
  CD40: -0.131
  CD69: 0.026
  CXCL8/IL-8: -0.133
  CXCL9/MIG: -0.055
  PBMC Cytotoxicity: 0.00148
  Proliferation: 0.021
  SRB: -0.056
SAg, 1.00E3 nM
  CCL2/MCP-1: -0.072
  CD38: -0.069
  CD40: -0.122
  CD69: 0.050
  CXCL8/IL-8: -0.196
  CXCL9/MIG: -0.061
  PBMC Cytotoxicity: 0.00529
  Proliferation: 0.010
  SRB: -0.049
SAg, 1.00E4 nM
  CCL2/MCP-1: -0.111
  CD38: -0.058
  CD40: -0.144
  CD69: 0.006
  CXCL8/IL-8: -0.208
  CXCL9/MIG: -0.061
  PBMC Cytotoxicity: 0.00852
  Proliferation: -0.041
  SRB: -0.053
